The values below come from US9604989B2, “Imidazopyridazines as Akt kinase inhibitors” (Bayer Intellectual Property GmbH, priority 2011, dated 2017).

Broadly, the IC50 is the concentration at which inhibition is half-maximal.

Each structure is given as a SMILES string.

In assay [1] the target is His-tagged human recombinant kinase full-length Akt1 (Homo sapiens (Human), UniProt P31749). Kind of assay: Akt1 kinase assay (Akt1 TR-FRET assay). In kind it is biochemical. Particulars: 10 μM ATP, 60 min at 22° C., read-out: Akt1 median IC50.
His-tagged human recombinant kinase full-length Akt1, sequence (P31749 whole entry): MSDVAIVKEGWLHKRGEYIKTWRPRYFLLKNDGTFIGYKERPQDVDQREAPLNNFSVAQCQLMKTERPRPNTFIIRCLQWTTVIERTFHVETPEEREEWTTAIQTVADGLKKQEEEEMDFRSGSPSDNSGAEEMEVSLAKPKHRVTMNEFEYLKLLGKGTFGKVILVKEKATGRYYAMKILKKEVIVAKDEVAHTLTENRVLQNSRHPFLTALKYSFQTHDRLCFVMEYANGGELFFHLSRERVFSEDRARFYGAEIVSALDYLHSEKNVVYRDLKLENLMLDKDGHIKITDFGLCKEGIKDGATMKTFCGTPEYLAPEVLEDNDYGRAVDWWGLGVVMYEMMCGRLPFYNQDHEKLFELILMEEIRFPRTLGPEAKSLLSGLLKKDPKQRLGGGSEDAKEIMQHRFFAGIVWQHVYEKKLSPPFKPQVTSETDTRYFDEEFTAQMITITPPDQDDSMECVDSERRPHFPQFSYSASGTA
Description: Biological Assay 1.0: Akt1 Kinase Assay
Akt1 inhibitory activity of compounds of the present invention was quantified employing the Akt1 TR-FRET assay as described in the following paragraphs.
His-tagged human recombinant kinase full-length Akt1 expressed in insect cells was purchased form Invitrogen (part number PV 3599). As substrate for the kinase reaction the biotinylated peptide biotin-Ahx-[sequence] (C-terminus in amide form) was used which can be purchased e.g. from the company Biosynthan GmbH (Berlin-Buch, Germany).
For the assay 50 nl of a 100 fold concentrated solution of the test compound in DMSO was pipetted into a black low volume 384 well microtiter plate (Greiner Bio-One, Frickenhausen, Germany), 2 μl of a solution of Akt1 in assay buffer [50 mM TRIS/HCl pH 7.5, 5 mM MgCl2, 1 mM dithiothreitol, 0.02% (v/v) Triton X-100 (Sigma)] were added and the mixture was incubated for 15 min at 22° C. to allow pre-binding of the test compounds to the enzyme before the start of the kinase reaction. Then the kinase reaction was started by the addition of 3 μl of a solution of adenosine-tri-phosphate (ATP, 16.7 μM=>final conc. in the 5 μl assay volume is 10 μM) and substrate (1.67 μM=>final conc. in the 5 μl assay volume is 1 μM) in assay buffer and the resulting mixture was incubated for a reaction time of 60 min at 22° C. The concentration of Akt1 in the assay was adjusted depending of the activity of the enzyme lot and was chosen appropriate to have the assay in the linear range, typical enzyme concentrations were in the range of about 0.05 ng/μl (final conc. in the 5 μl assay volume). The reaction was stopped by the addition of 5 μl of a solution of HTRF detection reagents (200 nM streptavidine-XL665 [Cisbio] and 1.5 nM anti-phosho-Serine antibody [Millipore, cat. #35-001] and 0.75 nM LANCE Eu-W 1024 labeled anti-mouse IgG antibody [Perkin Elmer]) in an aqueous EDTA-solution (100 mM EDTA, 0.1% (w/v) bovine serum albumin in 50 mM HEPES/NaOH pH 7.5). The resulting mixture was incubated 1 h at 22° C. to allow the binding of the biotinylated phosphorylated peptide to the streptavidine-XL665 and the antibodies. Subsequently the amount of phosphorylated substrate was evaluated by measurement of the resonance energy transfer from the anti-mouse-IgG-Eu-Chelate to the streptavidine-XL665. Therefore, the fluorescence emissions at 620 nm and 665 nm after excitation at 350 nm was measured in a HTRF reader, e.g. a Rubystar (BMG Labtechnologies, Offenburg, Germany) or a Viewlux (Perkin-Elmer). The ratio of the emissions at 665 nm and at 622 nm was taken as the measure for the amount of phosphorylated substrate.
For assay [2], the target named is His-tagged human recombinant kinase full-length Akt2 (Homo sapiens (Human), UniProt P31751). Nature of the assay: Akt2 kinase assay (Akt2 TR-FRET assay). In kind it is biochemical. Particulars: 10 μM ATP, 60 min at 22° C., read-out: Akt2 median IC50. In general terms: TR-FRET usually uses a lanthanide donor and a delayed reading to cut background.
His-tagged human recombinant kinase full-length Akt2, sequence (P31751 whole entry): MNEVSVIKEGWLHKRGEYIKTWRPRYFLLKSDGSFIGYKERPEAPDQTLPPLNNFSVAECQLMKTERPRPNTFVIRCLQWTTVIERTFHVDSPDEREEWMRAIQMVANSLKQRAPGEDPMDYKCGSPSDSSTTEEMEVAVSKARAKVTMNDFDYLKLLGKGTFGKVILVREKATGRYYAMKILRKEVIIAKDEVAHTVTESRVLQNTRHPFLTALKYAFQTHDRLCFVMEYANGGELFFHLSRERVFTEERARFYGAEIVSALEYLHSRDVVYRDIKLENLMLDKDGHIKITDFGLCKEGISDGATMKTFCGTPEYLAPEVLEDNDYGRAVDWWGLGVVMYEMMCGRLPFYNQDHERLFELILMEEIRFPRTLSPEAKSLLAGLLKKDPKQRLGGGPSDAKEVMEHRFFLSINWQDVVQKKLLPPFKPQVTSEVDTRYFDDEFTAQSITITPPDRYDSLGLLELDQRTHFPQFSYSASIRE
Description: Akt2 inhibitory activity of compounds of the present invention was quantified employing the Akt2 TR-FRET assay as described in the following paragraphs.
His-tagged human recombinant kinase full-length Akt2 expressed in insect cells and activated by PDK1 was purchased form Invitrogen (part number PV 3975). As substrate for the kinase reaction the biotinylated peptide biotin-Ahx-[sequence] (C-terminus in amide form) was used which can be purchased e.g. from the company Biosynthan GmbH (Berlin-Buch, Germany). For the assay 50 nl of a 100 fold concentrated solution of the test compound in DMSO was pipetted into a black low volume 384 well microtiter plate (Greiner Bio-One, Frickenhausen, Germany), 2 μl of a solution of Akt2 in assay buffer [50 mM TRIS/HCl pH 7.5, 5 mM MgCl2, 1 mM dithiothreitol, 0.02% (v/v) Triton X-100 (Sigma)] were added and the mixture was incubated for 15 min at 22° C. to allow pre-binding of the test compounds to the enzyme before the start of the kinase reaction. Then the kinase reaction was started by the addition of 3 μl of a solution of adenosine-tri-phosphate (ATP, 16.7 μM=>final conc. in the 5 μl assay volume is 10 μM) and substrate (1.67 μM=>final conc. in the 5 μl assay volume is 1 μM) in assay buffer and the resulting mixture was incubated for a reaction time of 60 min at 22° C. The concentration of Akt2 in the assay was adjusted depending of the activity of the enzyme lot and was chosen appropriate to have the assay in the linear range, typical enzyme concentrations were in the range of about 0.2 ng/μl (final conc. in the 5 μl assay volume). The reaction was stopped by the addition of 5 μl of a solution of HTRF detection reagents (200 nM streptavidine-XL665 [Cisbio] and 1.5 nM anti-phosho-Serine antibody [Millipore, cat. #35-001] and 0.75 nM LANCE Eu-W 1024 labeled anti-mouse IgG antibody [Perkin Elmer]) in an aqueous EDTA-solution (100 mM EDTA, 0.1% (w/v) bovine serum albumin in 50 mM HEPES/NaOH pH 7.5). The resulting mixture was incubated 1 h at 22° C. to allow the binding of the biotinylated phosphorylated peptide to the streptavidine-XL665 and the antibodies. Subsequently the amount of phosphorylated substrate was evaluated by measurement of the resonance energy transfer from the anti-mouse-IgG-Eu-Chelate to the streptavidine-XL665. Therefore, the fluorescence emissions at 620 nm and 665 nm after excitation at 350 nm was measured in a TR-FRET reader, e.g. a Rubystar (BMG Labtechnologies, Offenburg, Germany) or a Viewlux (Perkin-Elmer). The ratio of the emissions at 665 nm and at 622 nm was taken as the measure for the amount of phosphorylated substrate.
The subject of assay [3] is phospho-AKT at S473. Nature of the assay: Cellular p-AKT1/2/3-S473 assay in KPL-4 cells. In kind it is cell-based. The following applies: Homo sapiens, KPL4; KPL-4 breast tumour cell line, compound treatment 2 hours; read-out: pAKT-S473 median IC50.
Protocol: (§1) The molecular mechanism of action was investigated in a set of experiments to assess the inhibition of the PI3K-AKT-mTOR pathway in responsive cell lines such as KPL-4 breast tumour cell line (PIK3CA^H1047R, HER2^O/E and hormone independent). The phospho-substrates of PI3K-AKT-mTOR axis were used as the read-outs to reflect pathway inhibition. Cells were seeded at 60-80% confluency per well in 96-well cell culture plates. After overnight incubation at 37° C. 5% CO2, cells were treated with compounds and vehicle at 37° C. for 2 hours. […] All measurements where at least done in duplicates and confirmed by independent repetition.
Alternatively pAKT-S473 was measured using the “Akt Duplex” of the MULTI-SPOT® Assay System (Fa. Meso Scale Discovery, Cat#N41100B-1) following manufacturers instructions. Each assay used 20 μg of protein extract and measured total AKT and p-AKT content simultaneously in one well. All measurements where at least done in duplicates and confirmed by independent repetition. Values for P-AKT are expressed as percentage of P-AKT level compared to total-AKT content of the extracts.
Assay [4] has as its system p-4E-BP1 at T70. Kind of assay: Cellular p-4E-BP1-T70 assay in KPL-4 cells. The following applies: Homo sapiens, KPL4; KPL-4 breast tumour cell line, compound treatment 2 hours; read-out: P4EBP1-T70 median IC50. The format is cell-based.
Protocol: as §1
Assay [5] deals with KPL-4 breast cancer cell line. Kind of assay: Tumor cell proliferation assay (CellTiter-Glo), KPL-4. The following applies: Homo sapiens, KPL4, 72 h drug exposure, read-out: KLP-4 median IC50. The format is cell-based. (In general: In ATP-based viability assays light output follows the ATP content of the culture.)
Protocol: (§2) Biological Assay 4.0: Tumor Cell Proliferation Assays
(§3) Compounds were tested in a cell-based assay that measures the capacity of the compounds to inhibit tumour cell proliferation following a 72 h drug exposure. Cell viability is determined using CellTiter-Glow® (CTG, Promega, cat#G7571/2/3). The CellTiter-Glo® Luminescent Cell Viability Assay is a homogeneous method to determine the number of viable cells in culture.
(§4) Detection is based on using the luciferase reaction to measure the amount of ATP from viable cells. The amount of ATP in cells correlates with cell viability. Within minutes after a loss of membrane integrity, cells lose the ability to synthesize ATP, and endogenous ATPases destroy any remaining ATP; thus the levels of ATP fall precipitously.
(§5) For each cell line assayed, cells were plated onto a separate plate for determination of fluorescence at t=0 hour and t=72 hour time points. Following overnight incubation at 37° C., chemiluminescence values for the t=0 samples were determined after adding 10 μl medium and 100 μl CTG solution according to manufacture protocol. Plates for the t=72 hour time points were treated with compounds diluted into growth medium at ten times final concentration added in 10 μL to the cell culture plate. Cells were then incubated for 72 hours at 37° C. Chemiluminescence values for the t=72 hour samples were determined. […] Experiments were controlled using a reference compound as standard.
Assay [6] relates to MCF-7 breast tumour cell line. Nature of the assay: Tumor cell proliferation assay (CellTiter-Glo), MCF-7. The format is cell-based. Particulars: Homo sapiens, MCF7, 72 h drug exposure, read-out: MCF-7 median IC50.
Protocol: as §2, §3, §4, §5

`NC1(c2ccc(-c3nc4ccc(Cl)nn4c3-c3ccccc3)cc2)CCC1` [Example 17, 1-[4-(6-Chloro-3-phenylimidazo[1,2-b]pyridazin-2-yl)phenyl]cyclobutanamine]: the IC50 in assay [1] turned out to be 43 nM; in assay [2] it was 92 nM; in assay [3] it was 12 nM; in assay [4], 430 nM.

Take `COC(=O)COc1ccc2nc(-c3ccc(C4(N)CCC4)cc3)c(-c3ccccc3)n2n1` [Example 80, Methyl ({2-[4-(1-aminocyclobutyl)phenyl]-3-phenylimidazo[1,2-b]pyridazin-6-yl}oxy)acetate]: the IC50 in assay [1] is 96 nM; in assay [2], 610 nM; in assay [3] it was 190 nM; in assay [4], 9800 nM; in assay [5], 10000 nM; in assay [6] it was 10000 nM.

As to `CNC(=O)c1ccc2nc(-c3ccc(C4(N)CCC4)cc3)c(-c3ccccc3)n2n1` [Example 68, 2-[4-(1-Aminocyclobutyl)phenyl]-N-methyl-3-phenylimidazo[1,2-b]-pyridazine-6-carboxamide], the IC50 was determined as 21 nM in assay [1]; 66 nM in assay [2]; 3.7 nM in assay [3]; 5300 nM in assay [4]; 1500 nM in assay [5]; 680 nM in assay [6].

Consider `CCCCOc1cc(OCC)nn2c(-c3ccccc3)c(-c3ccc(C4(N)CCC4)cc3)nc12` [Example 77, 1-[4-(8-Butoxy-6-ethoxy-3-phenylimidazo[1,2-b]pyridazin-2-yl)phenyl]-cyclobutanamine], for which the IC50 came to 10 nM in assay [1]; 61 nM in assay [2]; 460 nM in assay [3]; 1400 nM in assay [4]; 1900 nM in assay [5]; 1700 nM in assay [6].

As to `Cc1c(C(N)=O)nn2c(-c3ccccc3)c(-c3ccc(C4(N)CCC4)cc3)nc2c1C` [Example 52, 2-[4-(1-Aminocyclobutyl)phenyl]-7,8-dimethyl-3-phenylimidazo[1,2-b]-pyridazine-6-carboxamide], the IC50 in assay [1] was found to be 26 nM; in assay [2], 15 nM; in assay [3], 2.1 nM; in assay [4], 9.9 nM; in assay [5] it was 140 nM; in assay [6] it was 110 nM.

As to `C=Cc1cc(-c2cc[nH]n2)c2nc(-c3ccc(C4(N)CCC4)cc3)c(-c3ccccc3)n2n1` [Example 20, 1-{4-[3-Phenyl-8-(1H-pyrazol-3-yl)-6-vinylimidazo [1,2-b]pyridazin-2-yl]phenyl}cyclobutanamine], the IC50 was determined as 120 nM in assay [1]; 170 nM in assay [2]; 520 nM in assay [3]; 1500 nM in assay [4]; 2600 nM in assay [5]; 1800 nM in assay [6].

For the compound `COc1ccc2nc(-c3ccc(C4(N)CCC4)cc3)c(-c3ccccc3)n2n1` [Example 6, 1-[4-(6-Methyloxy-3-phenylimidazo[1,2-b]pyridazin-2-yl)phenyl]cyclobutanamine], the IC50 worked out at 4.2 nM in assay [1]; 80 nM in assay [2]; 210 nM in assay [3]; 1300 nM in assay [4]; 1100 nM in assay [5]; 1200 nM in assay [6].

With `NC1(c2ccc(-c3nc4ccc(O)nn4c3-c3ccccc3)cc2)CCC1` [Example 79, 2-[4-(1-Aminocyclobutyl)phenyl]-3-phenylimidazo[1,2-b]pyridazin-6-ol], the IC50 in assay [1] is 2000 nM; in assay [2], 2800 nM; in assay [3] it was 210 nM; in assay [4] it was 910 nM; in assay [5] it was 10000 nM; in assay [6] it was 10000 nM.

Turning to `CNC(=O)c1cc(-c2cc[nH]n2)c2nc(-c3ccc(C4(N)CCC4)cc3)c(-c3ccccc3)n2n1` [Example 65, 2-[4-(1-Aminocyclobutyl)phenyl]-N-methyl-3-phenyl-8-(1H-pyrazol-3-yl)imidazo[1,2-b]pyridazine-6-carboxamide], the IC50 stood at 3.1 nM in assay [1]; 2.6 nM in assay [2]; 1.4 nM in assay [3]; 22 nM in assay [4]; 470 nM in assay [5]; 280 nM in assay [6].

Consider `NC1(c2ccc(-c3nc4c(OCc5ccccc5)cc(Cl)nn4c3-c3ccccc3)cc2)CCC1` [Example 29, 1-{4-[8-(Benzyloxy)-6-chloro-3-phenylimidazo[1,2-b]pyridazin-2-yl]phenyl}cyclobutanamine], for which the IC50 came out at 56 nM in assay [1]; 78 nM in assay [2]; 210 nM in assay [3]; 1300 nM in assay [4]; 2000 nM in assay [5]; 1700 nM in assay [6].

For `COc1cc(-c2ccncc2)c2nc(-c3ccc(C4(N)CCC4)cc3)c(-c3ccccc3)n2n1` [Example 75, 1-{4-[6-Methoxy-3-phenyl-8-(pyridin-4-yl)imidazo[1,2-b]pyridazin-2-yl]phenyl}cyclobutanamine], the IC50 in assay [1] turned out to be 21 nM; in assay [2] it was 100 nM; in assay [3], 230 nM; in assay [4], 1500 nM; in assay [5], 1800 nM; in assay [6] it was 1800 nM.

`NC1(c2ccc(-c3nc4ccc(C(=O)O)nn4c3-c3ccccc3)cc2)CCC1` [Example 8, 2-[4-(1-Aminocyclobutyl)phenyl]-3-phenylimidazo[1,2-b]pyridazine-6-carboxylic acid]: the IC50 in assay [1] is 450 nM; in assay [2], 400 nM; in assay [3], more than 10000 nM; in assay [4], more than 10000 nM; in assay [5] it was more than 10000 nM; in assay [6], more than 10000 nM.

For `CCOc1ccc2nc(-c3ccc(C4(N)CCC4)cc3)c(-c3ccccc3)n2n1` [Example 78, 1-[4-(6-Ethoxy-3-phenylimidazo[1,2-b]pyridazin-2-yl)phenyl]cyclobutanamine], the IC50 in assay [1] turned out to be 32 nM; in assay [2] it was 230 nM; in assay [3], 92 nM; in assay [4], 580 nM.

As to `Nc1ccc2nc(-c3ccc(C4(N)CCC4)cc3)c(-c3ccccc3)n2n1` [Example 35, 2-[4-(1-Aminocyclobutyl)phenyl]-3-phenylimidazo[1,2-b]pyridazin-6-amine], the IC50 was determined as 1200 nM in assay [2]; 190 nM in assay [3]; 1700 nM in assay [4]; 6100 nM in assay [5]; 3000 nM in assay [6].

With `Cc1ccc2nc(-c3ccc(C4(N)CCC4)cc3)c(-c3ccccc3)n2n1` [Example 1, 1-[4-(6-Methyl-3-phenylimidazo[1,2-b]pyridazin-2-yl)phenyl]cyclobutanamine], the IC50 in assay [1] came out at 170 nM; in assay [2], 380 nM; in assay [3] it was 160 nM; in assay [5], 1800 nM; in assay [6], 600 nM.

Consider `CNC(=O)c1cc(OC)c2nc(-c3ccc(C4(N)CCC4)cc3)c(-c3ccccc3)n2n1` [Example 26, 2-[4-(1-Aminocyclobutyl)phenyl]-8-methoxy-N-methyl-3-phenylimidazo[1,2-b]pyridazine-6-carboxamide], for which the IC50 in assay [2] worked out at 10 nM; in assay [3], 0.9 nM; in assay [4], 90 nM; in assay [5] it was 1800 nM; in assay [6] it was 1800 nM.

For `COC(=O)c1ccnn2c(-c3ccccc3)c(-c3ccc(C4(N)CCC4)cc3)nc12` [Example 31, Methyl 2-[4-(1-aminocyclobutyl)phenyl]-3-phenylimidazo[1,2-b]pyridazine-8-carboxylate], the IC50 was found to be 140 nM in assay [2]; 1800 nM in assay [3]; 4300 nM in assay [4]; 8400 nM in assay [5]; 1400 nM in assay [6].

Turning to `CNC(=O)c1cc(OCC2CC2)c2nc(-c3ccc(C4(N)CCC4)cc3)c(-c3ccccc3)n2n1` [Example 64, 2-[4-(1-Aminocyclobutyl)phenyl]-8-(cyclopropylmethoxy)-N-methyl-3-phenylimidazo[1,2-b]pyridazine-6-carboxamide], the IC50 in assay [2] stood at 12 nM; in assay [3] it was 0.9 nM; in assay [4], 84 nM; in assay [5], 360 nM; in assay [6] it was 150 nM.

In the case of `CNC(=O)c1cc(-c2ncc[nH]2)c2nc(-c3ccc(C4(N)CCC4)cc3)c(-c3ccccc3)n2n1` [Example 62, 2-[4-(1-Aminocyclobutyl)phenyl]-8-(1H-imidazol-2-yl)-N-methyl-3-phenylimidazo[1,2-b]pyridazine-6-carboxamide], the IC50 in assay [1] turned out to be 16 nM; in assay [2], 62 nM; in assay [3], 0.4 nM; in assay [4] it was 35 nM.

With `NC(=O)c1cc(C(N)=O)c2nc(-c3ccc(C4(N)CCC4)cc3)c(-c3ccccc3)n2n1` [Example 34, 2-[4-(1-Aminocyclobutyl)phenyl]-3-phenylimidazo[1,2-b]pyridazine-6,8-dicarboxamide], the IC50 in assay [2] was determined as 14 nM; in assay [3], 3.1 nM; in assay [4] it was 150 nM; in assay [5], 1100 nM; in assay [6], 330 nM.

Consider `NC1(c2ccc(-c3nc4c(-c5cc[nH]n5)cc(C(=O)O)nn4c3-c3ccccc3)cc2)CCC1` [Example 67, 2-[4-(1-Aminocyclobutyl)phenyl]-3-phenyl-8-(1H-pyrazol-3-yl)imidazo[1,2-b]-pyridazine-6-carboxylic acid], for which the IC50 in assay [1] was 58 nM; in assay [2], 96 nM; in assay [3] it was more than 10000 nM; in assay [4], more than 10000 nM.
